Here are results for 5 compounds from patent US20150344540A1, “NOVEL GLP-1 RECEPTOR AGONISTS WITH CHOLESTEROL EFFLUX ACTIVITY” (NOVO NORDISK A/S, priority 2012, published 2015).

The nature of data set [1]: Pharmacokinetics in mini-pigs after i.v. administration. Conditions: female, Göttingen, minipig, iv, 5 nmol/kg. The text has this:
The aim of the study is to assess the pharmacokinetic properties of the compounds of the invention, in mini-pigs.
Göttingen mini-pigs female, 15-20 kg, purchased from Ellegaard Mini-pigs, Denmark, were housed in the Animal Unit, Novo Nordisk A/S and were kept and handled according to normal procedure in the Animal Unit. After minimum 2 weeks of acclimatization two permanent central venous catheters were implemented in vena cava caudalis in each animal. After surgery the animals were in their normal individual pens during the pharmacokinetic experiments.
Intravenous injections were given through the central short catheter, which was flushed with min 10 ml of sterile saline post administration. The test substance was dosed at 5 nmol/kg, N=3, in a volume of 0.05 ml/kg.
On day 1 the catheters are coupled to extension tubes, which will be removed at the end of day 1.
Samples were kept on wet ice until centrifugation (10 min, 4° C., 1942 g). Afterwards, plasma (min. 100 μl) was transferred immediately to Micronic tubes and kept at −20° C. until analysis. The plasma samples were analysed by an immunoaasay described below.
The plasma concentrations of the peptides with intact N-terminus were determined using a Luminescence Oxygen Chanelling Immuno-assay (LOCI). The donor beads were coated with streptavidin, while acceptor beads were conjugated with a monoclonal antibody recognizing a mid-/C-terminal epitope of the peptide. The other monoclonal antibody, specific for the N-terminus, was biotinylated. The three reactants were combined with the analyte and formed a two-sited immuno-complex. Illumination of the complex released singlet oxygen atoms from the donor beads, which were channeled into the acceptor beads and triggered chemi-luminescence which was measured in an Envision plate reader. The amount of light was proportional to the concentration of the compound.
Plasma concentration-time profiles was analysed by a non-compartmental pharmacokinetics analysis using Phoenix (Pharsight Inc., Mountain View, Calif., USA). Calculations were performed using individual concentration-time values from each animal.

Data set [2] concerns Mouse monocyte/macrophage cell line, RAW 264.7. As to the kind of experiment: Cholesterol efflux assay (3H-cholesterol, macrophage cell line). Type of data set: cell-based. Conditions: RAW 264.7, 4 hrs incubation, 0.1% human serum albumin; for 4 h Cholesterol Efflux Emax: ABCA1-mediated efflux.
The mark [3] stands for this setting: plasma, T1/2 Mean Value, Göttingen mini-pigs, N=3.

SMILES strings stand for the structures. Where a SMILES comes first, the peptide text is derived from it. [ ]: non-standard residue; d: D form. Aib = CC(C)(N)C(=O)O

What is called Vd is a proportionality between amount in the body and measured concentration, not a real space. Higher therefore signals extensive tissue distribution. For orientation: clearance means the volume of plasma or blood freed of the substance per unit of time. Read a high clearance as efficient removal. As usually defined, the half-life is how long it takes for the measured level to halve. For orientation: EC50 means the midpoint of the concentration-response curve. In data set [1] (in vivo), `CC[C@H](C)[C@H](NC(=O)[C@H](Cc1ccccc1)NC(=O)[C@H](CCC(=O)O)NC(=O)[C@H](CCCCN)NC(=O)[C@@H](NC(=O)[C@H](C)NC(=O)[C@H](CCC(=O)O)NC(=O)CNC(=O)[C@H](CCC(=O)O)NC(=O)[C@H](CC(C)C)NC(=O)[C@H](Cc1ccc(O)cc1)NC(=O)[C@H](CO)NC(=O)[C@H](CO)NC(=O)[C@@H](NC(=O)[C@H](CC(=O)O)NC(=O)[C@H](CO)NC(=O)[C@@H](NC(=O)[C@H](Cc1ccccc1)NC(=O)[C@@H](NC(=O)CNC(=O)[C@H](CCC(=O)O)NC(=O)C(C)(C)NC(=O)[C@@H](N)Cc1c[nH]cn1)[C@@H](C)O)[C@@H](C)O)C(C)C)C(C)C)C(=O)N[C@@H](C)C(=O)N[C@@H](Cc1c[nH]c2ccccc12)C(=O)N[C@@H](CC(C)C)C(=O)N[C@H](C(=O)N[C@@H](CCC(=O)O)C(=O)N[C@@H](CCCCN)C(=O)NC(C)(C)C(=O)N[C@@H](CCCCN)C(=O)N[C@@H](CCC(=O)O)C(=O)N[C@@H](Cc1ccccc1)C(=O)N[C@@H](CC(C)C)C(=O)O)C(C)C` [Compound 16, [Aib8,Glu23,Val25,Glu34,Lys35,Aib36,Lys37]-GLP-1-(7-37)-peptidyl-Glu-Phe-Leu] had a C0 of 123 nM, a Vd of 0.0889 L/kg, a clearance of 1.44 mL/h/kg and a half-life of 42.8 h. Also, the “4 h Cholesterol Efflux Emax” value in data set [2] is 105%. In data set [2] (read-out: 4 h Cholesterol Efflux EC50, ABCA1-mediated efflux (CPT-cAMP induced minus non-induced)), the EC50 is 680 nM.
For the compound `CC[C@H](C)[C@H](NC(=O)[C@H](Cc1ccccc1)NC(=O)[C@H](CCC(=O)O)NC(=O)[C@H](CCCCN)NC(=O)[C@@H](NC(=O)[C@H](C)NC(=O)[C@H](CCC(=O)O)NC(=O)CNC(=O)[C@H](CCC(=O)O)NC(=O)[C@H](CC(C)C)NC(=O)[C@H](Cc1ccc(O)cc1)NC(=O)[C@H](CO)NC(=O)[C@H](CO)NC(=O)[C@@H](NC(=O)[C@H](CC(=O)O)NC(=O)[C@H](CO)NC(=O)[C@@H](NC(=O)[C@H](Cc1ccccc1)NC(=O)[C@@H](NC(=O)CNC(=O)[C@H](CCC(=O)O)NC(=O)C(C)(C)NC(=O)[C@@H](N)Cc1c[nH]cn1)[C@@H](C)O)[C@@H](C)O)C(C)C)C(C)C)C(=O)N[C@@H](C)C(=O)N[C@@H](Cc1c[nH]c2ccccc12)C(=O)N[C@@H](CC(C)C)C(=O)N[C@H](C(=O)N[C@@H](CCC(=O)O)C(=O)N[C@@H](CCCCN)C(=O)N[C@H](C(=O)N[C@@H](CCCCN)C(=O)N[C@@H](CCC(=O)O)C(=O)N[C@@H](Cc1ccccc1)C(=O)N[C@@H](CC(C)C)C(N)=O)C(C)C)C(C)C` [Compound 6, [Aib8,Glu23,Val25,Glu34,Lys35,Val36,Lys37]-GLP-1-(7-37)-peptidyl-Glu-Phe-Leu amide] (H-H[Aib]EGTFTSDVSSYLEGEAVKEFIAWLVEKVKEFL-NH2), in data set [1] (plasma), the C0 was found to be 89.5 nM, the Vd is 0.0904 L/kg and the clearance was 1.64 mL/h/kg. In data set [1] (plasma, T1/2, mini-pigs), the half-life is 38.7 h. In addition, the half-life in data set [1] (setting [3]) was 38.7 h. Further, the “4 h Cholesterol Efflux Emax” value in data set [2] came out at 92%.
Regarding `CC[C@H](C)[C@H](NC(=O)[C@H](Cc1ccccc1)NC(=O)[C@H](CCC(=O)O)NC(=O)[C@H](CCCCN)NC(=O)[C@@H](NC(=O)[C@H](C)NC(=O)[C@H](CCC(=O)O)NC(=O)CNC(=O)[C@H](CCC(=O)O)NC(=O)[C@H](CC(C)C)NC(=O)[C@H](Cc1ccc(O)cc1)NC(=O)[C@H](CO)NC(=O)[C@H](CO)NC(=O)[C@@H](NC(=O)[C@H](CC(=O)O)NC(=O)[C@H](CO)NC(=O)[C@@H](NC(=O)[C@H](Cc1ccccc1)NC(=O)[C@@H](NC(=O)CNC(=O)[C@H](CCC(=O)O)NC(=O)C(C)(C)NC(=O)[C@@H](N)Cc1c[nH]cn1)[C@@H](C)O)[C@@H](C)O)C(C)C)C(C)C)C(=O)N[C@@H](C)C(=O)N[C@@H](Cc1c[nH]c2ccccc12)C(=O)N[C@@H](CC(C)C)C(=O)N[C@H](C(=O)N[C@@H](CCC(=O)O)C(=O)N[C@@H](CCCCN)C(=O)NC(C)(C)C(=O)N[C@@H](CCCCN)C(=O)N[C@@H](CCC(=O)O)C(=O)N[C@@H](Cc1c[nH]cn1)C(=O)N[C@@H](CC(C)C)C(N)=O)C(C)C` [Compound 4, [Aib8,Glu23,Val25,Glu34,Lys35,Aib36,Lys37]-GLP-1-(7-37)-peptidyl-Glu-His-Leu amide] (H-H[Aib]EGTFTSDVSSYLEGEAVKEFIAWLVEK[Aib]KEHL-NH2), in data set [1] (plasma), the C0 stood at 72.1 nM, the Vd worked out at 0.1 L/kg and the clearance was 3.31 mL/h/kg. The compound also showed a half-life in data set [1] (plasma, T1/2, mini-pigs) of 20.6 h. In data set [1] (setting [3]), this compound gave a half-life of 20.6 h. Besides, the “4 h Cholesterol Efflux Emax” value in data set [2] is listed as 100%.
As to `CC[C@H](C)[C@H](NC(=O)[C@H](Cc1ccccc1)NC(=O)[C@H](CCC(=O)O)NC(=O)[C@H](CCCCN)NC(=O)[C@@H](NC(=O)[C@H](C)NC(=O)[C@H](CCC(=O)O)NC(=O)CNC(=O)[C@H](CCC(=O)O)NC(=O)[C@H](CC(C)C)NC(=O)[C@H](Cc1ccc(O)cc1)NC(=O)[C@H](CO)NC(=O)[C@H](CO)NC(=O)[C@@H](NC(=O)[C@H](CC(=O)O)NC(=O)[C@H](CO)NC(=O)[C@@H](NC(=O)[C@H](Cc1ccccc1)NC(=O)[C@@H](NC(=O)CNC(=O)[C@H](CCC(=O)O)NC(=O)C(C)(C)NC(=O)[C@@H](N)Cc1c[nH]cn1)[C@@H](C)O)[C@@H](C)O)C(C)C)C(C)C)C(=O)N[C@@H](C)C(=O)N[C@@H](Cc1c[nH]c2ccccc12)C(=O)N[C@@H](CC(C)C)C(=O)N[C@H](C(=O)N[C@@H](CCC(=O)O)C(=O)N[C@@H](CCCCN)C(=O)NC(C)(C)C(=O)N[C@@H](CCCCN)C(=O)N[C@@H](CCC(=O)O)C(=O)N[C@@H](Cc1ccccc1)C(=O)N[C@@H](CC(C)C)C(=O)N[C@@H](CCC(=O)O)C(=O)N[C@@H](CCCCN)C(=O)N[C@H](C(=O)N[C@@H](CCCCN)C(=O)N[C@@H](CCC(=O)O)C(=O)N[C@@H](Cc1ccccc1)C(N)=O)C(C)C)C(C)C` [Compound 61], in data set [1] (plasma), the C0 was determined as 53.3 nM, the Vd is 0.27 L/kg and the clearance was 5.9 mL/h/kg. Also, the half-life in data set [1] (setting [3]) is 31.8 h. Further, the “4 h Cholesterol Efflux Emax” value in data set [2] is reported as 82%.
In the case of `CC[C@H](C)[C@H](NC(=O)[C@H](Cc1ccccc1)NC(=O)[C@H](CCC(=O)O)NC(=O)[C@H](CCCCN)NC(=O)[C@@H](NC(=O)[C@H](C)NC(=O)[C@H](CCC(N)=O)NC(=O)CNC(=O)[C@H](CCC(=O)O)NC(=O)[C@H](CC(C)C)NC(=O)[C@H](Cc1ccc(O)cc1)NC(=O)[C@H](CO)NC(=O)[C@H](CO)NC(=O)[C@@H](NC(=O)[C@H](CC(=O)O)NC(=O)[C@H](CO)NC(=O)[C@@H](NC(=O)[C@H](Cc1ccccc1)NC(=O)[C@@H](NC(=O)CNC(=O)[C@H](CCC(=O)O)NC(=O)C(C)(C)NC(=O)[C@@H](N)Cc1c[nH]cn1)[C@@H](C)O)[C@@H](C)O)C(C)C)C(C)C)C(=O)N[C@@H](C)C(=O)N[C@@H](Cc1c[nH]c2ccccc12)C(=O)N[C@@H](CC(C)C)C(=O)N[C@H](C(=O)N[C@@H](CCC(=O)O)C(=O)N[C@@H](CCCCN)C(=O)NC(C)(C)C(=O)N[C@@H](CCCCN)C(=O)N[C@@H](CCC(=O)O)C(=O)N[C@@H](Cc1ccccc1)C(=O)N[C@@H](CC(C)C)C(N)=O)C(C)C` [Compound 7] (H-H[Aib]EGTFTSDVSSYLEGQAVKEFIAWLVEK[Aib]KEFL-NH2), in data set [1] (plasma), the C0 is 51.2 nM, the Vd is 0.146 L/kg and the clearance is 3.71 mL/h/kg. In data set [1] (plasma, T1/2, mini-pigs), this compound had a half-life of 27.3 h. This compound gave a half-life in data set [1] (setting [3]) of 27.3 h. Moreover, the “4 h Cholesterol Efflux Emax” value in data set [2] is given as 90%.
